Test results published in patent US20100028407A1, “LAYERED BIO-ADHESIVE COMPOSITIONS AND USES THEREOF” (UNIVERSITY OF LOUISVILLE RESEARCH FOUNDATION, INC., priority 2006, published 2010).

Assays:
[1] = Closure of 3 mm corneal wounds by impregnated gelatin sheets, Seidel test under rising intraocular pressure; set-up: species or system porcine; settings: about 100-μm gelatin sheet (50% gelatin, 300 mM sucrose) impregnated with rose bengal 1.5 mM (light pipe 3 min), glyceraldehyde 0.2 M (no illumination) or riboflavin 0.1% (UV 370 nm); average±standard deviation
Description: Gelatin blocks were prepared by the following method: Gelatin (300 Blooms, Sigma, St. Louis, Mo.) was dissolved in Minimal Essential Medium (MEM, Gibco, Grand Island, N.Y.), 300 mM sucrose was added and the solution was sterilized with gamma irradiation (2.7 Megarads). Addition of 300 mM sucrose maintained the gelatin sheets in a solid phase at temperatures below 37° C. and allowed the gelatin sheet to melt within minutes at body temperature once the gelatin sheet were placed over the wound. Gelatin blocks were prepared at a concentration of about 50% (weight/volume of MEM), which were firm enough to manipulate during the surgery by the surgeon. These gelatin blocks have rigidity of 300 blooms. Once the gelatin/sucrose solution in MEM was sterilized, the solution was poured into 35-mm tissue culture dish (Falcon #3001, Becton Dickinson, Lincoln Park, N.J.) and allowed to cool for 15 minutes to solidify at room temperature. […]
Rose bengal was activated with an endoilluminator light pipe for 3 minutes. […] After each elevation, the treated wound was checked for the presence of any possible wound leak with the Seidel test, and the highest intraocular pressure at which the wound remained intact was recorded. This experiment was repeated three times on three different occasions and the results were calculated as average±standard deviation. […]

[2] = system: photo receptor cells (PRC), choriocapillaris (CC) and RPE cells; experiment: Live-Dead cell viability immediately after photo-melding conditions; assay type: cell-based; settings: control PBS
Description: Cellular viability of photo receptor cells (PRC), choriocapillaris (CC) and RPE cells were determined with the Live-Dead assay (Molecular Probes, Portland, Oreg.) to determine the safety of the photo-melding procedure. Human cadaver eyes were obtained from an eye bank. Anterior segments were removed and sensory retina and RPE-CC complex were dissected out. Tissue samples of 6-mm size were cut from each layer and placed in 1.5 mM and 10 mM rose bengal solution. Using similar parameters photo-melding conditions were mimicked. Viability was assessed immediately after exposure. Samples exposed to similar lighting conditions in PBS were taken as control.

[3] = Attachment strength of photo-melded inner collagenous layer explants in a buoyancy chamber; set-up: species or system human; settings: for Attachment strength: 35 mW light at 40 mm
Description: Bruch's membrane explants were harvested from cadaver eyes. RPE-Bruch's membrane-Choroid complexes were dissected out under a microscope; washed with PBS three times and kept in 0.02N ammonium hydroxide for 30 minutes to lyse all cellular components. Three cycles of PBS washing followed by removal of the basal lamina mechanically as described before. Briefly, a full thickness circumferential incision was made posterior to the ora serrata and the anterior segment and vitreous were removed carefully. The posterior pole of each eye cup was inspected visually with direct and retroillumination under a dissecting microscope and globes were discarded if there was any evidence of subretinal blood, previous surgery or any extensive structural or vascular alteration of the posterior segment due to a disease process, such as proliferative diabetic retinopathy or proliferative vitreoretinopathy. The eyecups were put in carbon dioxide-free Media (Gibco) and a scleral incision was made 3 mm from the limbus and extended circumferentially. Four radial incisions were then made and the sclera was peeled away. […] The choroid-Bruch's membrane-RPE complex was then carefully peeled towards the optic disc and removed after trimming its attachment to the optic nerve. Native RPE were removed by bathing the explant with 0.02 N ammonium hydroxide in a 50-mm polystyrene Petri dish (Falcon, Becton Dickinson, Lincoln Park, N.J.) for 20 minutes at room temperature followed by washing three times in phosphate-buffered saline (PBS). The Bruch's membrane explant from the fellow eye was prepared by removing the RPE with 0.02N ammonium hydroxide as described above. The Bruch's membrane explant was then floated in CFM over a 12-18 micron thick hydrophilic polycarbonate-polyvinylpyrrolidone membrane with 0.4 micron pores (Millipore, Bedford, Mass.) with the basal lamina facing towards the membrane. The curled edges were flattened from the choroidal side with fine forceps without touching Bruch's membrane. Four percent agarose (Sigma Chemical Co., St. Louis, Mo.) was poured on the Bruch's membrane-choroid complex from the choroidal side and the tissue was kept at 4° C. for 2-3 minutes to solidify the agarose. The hydrophilic membrane was peeled off along with the basal lamina of the RPE thus exposing the bare inner collagenous layer. 6 mm circular buttons were then trephined from peripheral Bruch's membrane on a Teflon sheet and placed on 4% agarose at 37° C. in non-treated polystyrene wells of a 96 well plate (Corning Costar Corp., Cambridge, Mass.). The agarose solidified within 2-3 minutes at room temperature, thus stabilizing the Bruch's membrane explant. The wells were gently rinsed with PBS three times for 5 minutes, gamma sterilized (20,000 rads) and then stored at 4° C. Explants with exposed ICL were then cut with a 6-mm trephine and stored in sterile PBS after gamma sterilization at 20,000 rads. At the time of use ICL surface was painted with rose bengal (at concentrations as provided in FIG. 2) and two patches were faced to each other at their ICL surface. Extra fluid was removed with a Whatman #30 filter paper and the two surfaces were apposed. […] Exposure time was limited to three minutes not to exceed photo-toxicity thresholds. […] Exposed inner collagenous layers were painted with rose bengal and photo-[…] to each other by photo-exciting rose bengal with a white light source. The light intensity matched the vitrectomy endo illuminator and exposure was limited to 3 minutes to avoid retinal photo-toxicity. […] Attached grafts were kept under 0.21 mN (milliNewtons) of constant traction for 3 days to test the stability of the […] process.

[4] = system: PRC, CC and RPE cells; experiment: Live-Dead cell viability after photo-melding of Bruch's membrane patch graft in eyecup followed by ambient light; assay type: cell-based, human; settings: 1.5 mM rose bengal; 6 hours ambient light at room temperature
Description: In order to assess the additive effect of subsequent ambient light on cell toxicity anterior segments of three eyecups were removed and a 20-D PMMA PC IOL was sutured into the ciliary sulcus. Sensory retina was carefully lifted off and foveal RPE cells were removed mechanically. Exposed Bruch's membrane was intentionally damaged and a 6-mm Bruch's membrane patch graft photo-melded by photo-exciting 1.5 mM of rose bengal through sensory retina. After the photo-melding procedure, the eyecup was maintained at room temperature for 6 hours exposed to ambient light. At the end of this period cellular viability was assessed with Live-Dead assay. Again, PBS treated eyes served as control.

[5] = TEM and SEM ultrastructure of photo-melded Bruch's membrane explants; settings: 0.1 to 20 mM tested
Description: Bruch's membrane explants were photo-melded with varying concentrations of rose bengal, ranging from 0.1 to 20 mM. Transmission electron microscopy (TEM) and scanning electron microscopy (SEM). […] At this concentration, cross linked collagen fibers twisted onto themselves and formed macro bundles. At concentrations higher that 1.5 mM, attenuation of individual collagen fibers and frequent breaks lead to the disruption of collagen framework resulting in hollow spaces at 10 and 20 mM concentrations. Starting from 0.1 mM concentration, the number of electron-dense collagen fibers increased as the concentration of rose bengal increased, possibly due to increased oxidation and subsequent better attraction of positively charged lead and osmium on the collagen fiber. At concentrations higher than 10 mM electron dense haze started to accumulate around the collagen debris.

O=CC(O)CO (stereo not shown) [glyceraldehyde]
Highest intraocular pressure at which the wound remained intact [1]: 66.1±6.0 mmHg

O=C([O-])c1c(Cl)c(Cl)c(Cl)c(Cl)c1-c1c2cc(I)c(=O)c(I)c-2oc2c(I)c([O-])c(I)cc12.[Na+].[Na+] [rose bengal, tetratodotetrachioro fluorescein disodium salt]
PRC, CC and RPE cell viability immediately after photo-melding procedure ([2]; 1.5 mM rose bengal): no adverse side effect | PRC, CC and RPE cell viability immediately after photo-melding procedure ([2]; 10 mM rose bengal): no adverse side effect | Attachment strength ([3]; 1.5 mM rose bengal, 3 min): 14.1 N/m^2 | Attachment strength ([3]; 5 mM rose bengal, 3 min): 14.1 N/m^2 | Attachment strength ([3]; 10 mM rose bengal, 3 min): 5.7 N/m^2 | Attachment strength ([3]; 20 mM rose bengal, 3 min): 2.83 N/m^2 | Minimum concentration to attain strong photo-melding of human inner collagenous layer grafts ([3]; 3 min, 35 mW light): 1.5 mM | Concentration resulting in photo-melding of exposed human inner collagenous layers ([3]; 3 min exposure to 35 mW of light at 40 millimeters): above 0.1 mM | Stability of photo-melded grafts under continuous traction ([3]; 72 hours of observation at 37° C., 0.21 mN constant traction): remained attached | PRC, CC and RPE cell viability after photo-melding and ambient light exposure [4]: did not effect the viability | Concentration at which collagen crosslinking reached its maximum [5]: 1.5 mM | Highest intraocular pressure at which the wound remained intact [1]: 75.6±5.8 mmHg
